Measurements from PubChem BioAssay (NCI).
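Growth conditions: 96-well plates. Treatment: test compound, 48 hours, 5 concentrations. Analysis: linear interpolation between bracketing concentrations; unreached endpoints set to highest concentration. TGI: concentration producing complete growth inhibition.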

Legend:
Experiment in all cases: growth of human tumour cells (NCI), 48 h
DU-145 prostate = tested on: DU-145 prostate
EKVX NSCLC = tested on: EKVX NSCLC
HOP-92 NSCLC = tested on: HOP-92 NSCLC
HT29 colon = tested on: HT29 colon
IGROV1 ovarian = tested on: IGROV1 ovarian
K-562 leukemia = tested on: K-562 leukemia
MALME-3M melanoma = tested on: MALME-3M melanoma
MDA-MB-435 = tested on: MDA-MB-435
MDA-N = tested on: MDA-N
NCI-H226 lung = tested on: NCI-H226 lung
PC-3 prostate = tested on: PC-3 prostate
RPMI-8226 leukemia = tested on: RPMI-8226 leukemia
SF-539 CNS = tested on: SF-539 CNS
SK-OV-3 ovarian = tested on: SK-OV-3 ovarian
SNB-19 CNS = tested on: SNB-19 CNS
SR leukemia = tested on: SR leukemia
SW-620 colon = tested on: SW-620 colon
TK-10 renal = tested on: TK-10 renal
UACC-62 melanoma = tested on: UACC-62 melanoma
SK-MEL-28 melanoma = tested on: SK-MEL-28 melanoma

Compound	TGI (DU-145 prostate) [µM]	TGI (EKVX NSCLC) [µM]	TGI (HOP-92 NSCLC) [µM]	TGI (HT29 colon) [µM]	TGI (IGROV1 ovarian) [µM]	TGI (K-562 leukemia) [µM]	TGI (MALME-3M melanoma) [µM]	TGI (MDA-MB-435) [µM]	TGI (MDA-N) [µM]	TGI (NCI-H226 lung) [µM]	TGI (PC-3 prostate) [µM]	TGI (RPMI-8226 leukemia) [µM]	TGI (SF-539 CNS) [µM]	TGI (SK-OV-3 ovarian) [µM]	TGI (SNB-19 CNS) [µM]	TGI (SR leukemia) [µM]	TGI (SW-620 colon) [µM]	TGI (TK-10 renal) [µM]	TGI (UACC-62 melanoma) [µM]	TGI (SK-MEL-28 melanoma) [µM]
O=C(NCCCl)N(O)C(=O)Nc1ccccc1	> 100	> 100	> 100	> 100	> 100	> 100	> 100	> 100	> 100	> 100	> 100	> 100	> 100	> 100	> 100	> 100	> 100	> 100	> 100	–
O=C(Nc1nncs1)NS(=O)(=O)n1c(=S)sc2ccccc21	> 100	> 100	> 100	> 100	> 100	> 100	> 100	> 100	> 100	–	> 100	> 100	> 100	> 100	> 100	> 100	> 100	> 100	> 100	> 100
Cc1cc2c(cc1C)C(=O)C1(C2)Cc2c(C)ccc(C)c2C1=O (stereo not drawn)	> 100	> 100	> 100	–	> 100	> 100	> 100	> 100	> 100	> 100	> 100	> 100	> 100	–	> 100	> 100	> 100	> 100	> 100	> 100
Cc1cn(C2CC(O)C(CO[Si](C)(C)C(C)(C)C)OC2OC(C)C)c(=O)[nH]c1=O (stereo not drawn)	> 100	> 100	79.4	44.1	77	> 100	> 100	> 100	> 100	> 100	> 100	78.2	56.1	–	> 100	62.4	> 100	> 100	> 100	> 100
O=C1NC(=O)C(c2c[nH]c3ccccc23)=C1c1cn(C(c2ccccc2)(c2ccccc2)c2ccccc2)cn1	63.5	19.4	21.9	13.3	26.2	28.7	23.2	12.9	17.9	19.9	7.24	10.4	35.8	57	65.3	6.78	30	36.5	30.1	44.9
CN(C)c1ccc(/C=N\NC(=O)Nc2cccc3ccccc23)cc1	30.9	> 100	59.5	> 100	36.6	–	27.4	48.3	12	9.06	35.5	> 100	21.5	–	7.5	> 100	> 100	36.7	–	> 100
C#CC(C)(C)OC(=O)C(=[N+]=[N-])C(C)=O	> 10	> 10	> 10	> 10	> 10	> 10	> 10	> 10	> 10	> 10	> 10	> 10	> 10	> 10	> 10	> 10	> 10	> 10	> 10	> 10
CCOC(=O)/C=C/[C@H](O[Si](CC)(CC)CC)C(C)(C)C	> 100	> 100	> 100	> 100	> 100	> 100	> 100	> 100	> 100	> 100	> 100	41.3	> 100	> 100	> 100	50.7	> 100	> 100	> 100	–
C=C(C(=O)O)[C@@H]1C[C@@H](OC(C)=O)[C@]2(C)CC/C=C(\C)CCC[C@H](C)[C@H](O)[C@@H]1O2	> 100	> 100	> 100	> 100	> 100	> 100	> 100	59.1	64.2	> 100	> 100	> 100	35.7	> 100	–	65.1	> 100	> 100	> 100	> 100
O=C(Oc1ccccc1)N1c2ccccc2[C@@]23O[C@]24CCC[C@H]3C#C/C=C\C#C[C@H]14	30.5	31.8	27	23.2	24.9	> 100	22.1	36.7	26.9	38.1	23.8	32.9	45.8	17.1	29.1	41.1	23.5	47.8	23.6	27
O=C1C=CC(=O)c2c1ccc1c3ccccc3n(-c3cccc([N+](=O)[O-])c3)c21	> 10	> 9.51	4.05	> 10	> 10	1.45	4	4.37	4.82	> 10	> 10	3.9	> 6.82	> 10	> 10	0.961	2.79	4.47	> 3.16	> 6.36
Nc1nc(Cl)c(N)c(NCC2(CO)CCCC2)n1	> 100	> 100	> 100	> 100	> 100	> 100	> 100	> 100	> 100	> 100	> 100	> 100	> 100	24.2	> 100	> 100	> 100	> 100	7.44	> 100
CC(C(=O)OCc1ccccc1)(c1ccco1)N1C(=O)OC(c2ccccc2)C1c1ccccc1 (stereo not drawn)	> 100	> 100	> 100	> 100	> 100	> 100	> 100	> 100	> 100	> 100	> 100	> 100	> 100	> 100	> 100	> 100	> 100	> 100	> 100	> 100
CC1C[C@]2(C)C(=NCCN)Nc3ccccc3[C@@H]2N(C)c2ccccc21 (stereo partly drawn)	28.7	33	9.49	13.2	27.6	40.2	9.64	22.7	27.8	30.2	26.6	47.4	25.9	–	27.7	8.73	35.9	21.5	28.1	24.3
COC(=O)CC1C=CC(C)(OC)OO1 (stereo not drawn)	> 100	> 100	> 100	> 100	> 100	> 100	> 100	> 100	> 100	> 100	> 100	> 100	> 100	> 100	> 100	> 100	> 100	> 100	> 100	> 100
O=c1oc2ccccc2cc1-c1cn2ccccc2n1	21	29.3	> 100	51.7	26.3	> 52.6	14.7	14.5	19.8	26.7	12.8	47.3	10.6	15.6	12.7	> 35.5	31.6	20.5	15.8	17.7
O=S1(=O)Cc2ccc3c4c2-c2c(ccc5ccc(c-4c25)CS(=O)(=O)C3)C1	> 100	> 100	> 100	> 100	> 100	> 100	> 100	> 100	> 100	> 100	> 100	> 100	> 100	> 100	> 100	69	> 100	> 100	> 100	> 100
CC(CO)CCNc1ncnc2c1ncn2CCC(=O)OC(C)(C)C (stereo not drawn)	> 100	> 100	> 100	> 100	> 100	> 100	> 100	> 100	> 100	> 100	> 100	> 100	> 100	> 100	> 100	> 100	> 100	> 100	> 100	> 100
COc1ccc(NC(=O)N(C)CC2(O)CCC(C(C)(C)C)CC2)cc1 (stereo not drawn)	> 100	> 100	90.4	> 100	> 100	> 100	99.3	> 100	> 100	–	> 100	72.5	> 100	> 100	> 100	> 100	> 100	> 100	97.3	> 100
O=C(c1ccccc1)c1c(-c2ccccc2)n(-c2ccccc2)[nH]c(=O)c1=O	> 100	> 100	> 100	> 100	> 100	81.4	> 100	> 100	> 100	> 100	32.9	> 100	46.8	> 100	> 100	> 100	–	> 100	75.5	> 100
O=C(/N=C/c1c(O)c2ccccc2oc1=O)Oc1ccccc1	> 100	> 100	79.9	> 100	60.7	> 100	61.7	66.5	86.7	44.9	> 100	> 100	42.2	66	> 100	> 100	> 100	79.6	79.7	–
CCCCCCOc1ccc(Nc2c(O)c3c(c(O)c2Cl)C(=O)C=CC3=O)cc1	> 10	> 10	7.14	> 7.46	–	8.92	4.04	3.9	> 6.89	> 10	> 10	5.11	> 6.06	> 10	> 9.63	5.33	4.73	> 10	7.99	3.82
Cc1cc(C)c(C[C@H]2COC(=O)[C@]2(O)Cc2c(C)cc(C)cc2C)c(C)c1	31.9	28.2	29.7	> 100	–	> 100	29.9	37	44.4	33.7	32.1	77.7	74.4	34.2	39.4	> 100	53.8	37.6	28.5	76.5
O=C(O)C1C2C=CC(C2)C1c1ccccc1 (stereo not drawn)	> 100	> 100	> 100	> 100	–	> 100	> 100	> 100	> 100	> 100	> 100	> 100	> 100	> 100	> 100	> 100	> 100	> 100	> 100	> 100
